Literature values, collected in US12150952B2, “Formulation for the use in the simultaneous treatment of coccidial infections and iron deficiencies” (Elanco Animal Health GmbH, priority 2018, dated 2024).
Read-outs that look alike come from different tables or passages of the source.

Columns and labels:
[1] = tested on: Isospora suis; conditions: coccidiosis
[2] = value to be understood as stated ±1

## CCCc1ncc(C[n+]2ccccc2C)c(N)n1 [amprolium]
[1]
  preventing the disease in experimentally infected piglets: not been successful in preventing the disease

## CC[C@@]1([C@@H]2O[C@@H]([C@H]3O[C@@](O)(CO)[C@H](C)C[C@@H]3C)C[C@@H]2C)CC[C@H]([C@]2(C)CC[C@]3(C[C@H](O)[C@@H](C)[C@@H]([C@@H](C)[C@@H](OC)[C@H](C)C(=O)O)O3)O2)O1 [monensin]
[1]
  preventing the disease in experimentally infected piglets: not been successful in preventing the disease

## CCCCC(CC)COC(=O)CC(C(=O)OCC(CC)CCCC)S(=O)(=O)[O-].[Na+] (stereo not drawn) [Sodium docusate]
[2]
  HLB: about 10
[2]; listed as Sodium Docusate
  HLB: 10

## O=C1OCCN1/N=C/c1ccc([N+](=O)[O-])o1 [furazolidon]
[1]
  preventing the disease in experimentally infected piglets: not been successful in preventing the disease

## Sorbitan Monooleate
[2]
  HLB: about 4.6
